Assay results taken from article PMC11042424, “Development of a First-in-Class RIPK1 Degrader to Enhance Antitumor Immunity” (Research Square, 2024).
“Also recorded” adds a separate entry of the source.

Test system: whole cellular proteome of MDA-MB-231 cells
Assay: Proteome profiling of LD4172 induced protein degradation
Format: cell-based, human
Conditions: 200 nM, 6 h
Procedure: One million MDA-MB-231 cells were seeded in 6-well plates. The following day, cells were treated in triplicate with LD4172 (200 nM) or LD4172-NC (200 nM) for 6 h. The cells were washed thrice with ice-cold PBS. The cell pellets were lysed, reduced, alkylated, and digested using EasyPep™ MS Sample Prep Kits (A45733,ThermoFisher) according to the manufacturer’s instructions. The same amount of peptide from each condition was labeled with a tandem mass tag (TMT) reagent (90113, ThermoFisher). The 10-plex TMT reagent was incubated with each peptide sample at a ratio of 1:8 (peptide:TMT label). The 10-plex labeling reactions were performed for 1 h at room temperature. The labeled peptide samples were quenched by adding 50 μL of 5% hydroxylamine and 20% formic acid solution for 5 min and then mixed. […]
Proteome Discoverer 2.4 (Thermo Fisher Scientific) was used. RAW file processing and controlling peptide- and protein-level false discovery rates, assembling proteins from peptides, and protein quantification from peptides. […] PSMs with precursor isolation interference values > 50% and average TMT-reporter ion signal-to-noise values (S/N) < 10 were excluded from quantitation. […] Protein quantification uses both unique and […] peptides. […]

Cc1ncsc1-c1ccc([C@H](C)NC(=O)[C@@H]2C[C@@H](O)CN2C(=O)[C@@H](NC(=O)CCCCCCCCCCC(=O)NCCCn2cc(-c3ccc4c(c3)CCN4C(=O)Cc3cccc(OC(F)(F)F)c3)c3c(N)ncnc32)C(C)(C)C)cc1 [LD4172]
degradation of off-target kinases: no degradation of off-target kinases was observed
proteins degraded in whole cellular proteome (vs LD4172-NC): only protein showing >50% degradation; also recorded: RIPK1 was the only protein degraded
